This assay concerns the target HSD17B13 (Homo sapiens (Human), UniProt Q7Z5P4). Put plainly: HSD17B13 enzymatic inhibition assay (150 nM or 50 nM HSD17B13). It is filed as biochemical. The settings on record: 50 nM HSD17B13; read-out: Inhibition of 50 nM of HSD17B13 IC50.
Chain of HSD17B13 (Q7Z5P4 other isoform, or with tags, fused parts or gaps): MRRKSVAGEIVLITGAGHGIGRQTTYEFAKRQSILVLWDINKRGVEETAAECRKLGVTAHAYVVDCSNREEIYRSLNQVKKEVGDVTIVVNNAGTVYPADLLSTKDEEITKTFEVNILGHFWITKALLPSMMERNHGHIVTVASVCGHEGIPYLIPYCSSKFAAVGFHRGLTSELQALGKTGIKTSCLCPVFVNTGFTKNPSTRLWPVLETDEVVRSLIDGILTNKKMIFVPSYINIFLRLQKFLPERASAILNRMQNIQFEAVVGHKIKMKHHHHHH
The term IC50 denotes the concentration that gives 50% inhibition. For the compound `Cc1ccc2c(c1)Oc1cc(C)ccc1C2NC(=O)c1cc(CN2CCNCC2)c(C(F)(F)F)[nH]c1=O` [Compound 429, N-(3,6-dimethyl-9H-xanthen-9-yl)-2-oxo-5-(piperazin-1-ylmethyl)-6-(trifluoromethyl)-1,2-dihydropyridine-3-carboxamide], the IC50 was 320 nM. Under `Cc1ccc2c(c1)Oc1cc(C)ccc1C2NC(=O)c1cc(N2CCN(Cc3ccccc3)CC2)c(C(F)(F)F)[nH]c1=O` [Compound 430, 5-(4-benzylpiperazin-1-yl)-N-(3,6-dimethyl-9H-xanthen-9-yl)-2-oxo-6-(trifluoromethyl)-1,2-dihydropyridine-3-carboxamide] stands 40 nM; under `Cc1ccc2c(c1)Sc1cc(C)ccc1C2NC(=O)c1cc(NC2CCCCC2)c(C(F)(F)F)[nH]c1=O` [Compound 431, 5-(cyclohexylamino)-N-(3,6-dimethyl-9H-thioxanthen-9-yl)-2-oxo-6-(trifluoromethyl)-1,2-dihydropyridine-3-carboxamide], 130 nM; under `Cc1ccc2c(c1)Sc1cc(C)ccc1C2NC(=O)c1cc(N2CCNCC2)c(C(F)(F)F)[nH]c1=O` [Compound 432, N-(3,6-dimethyl-9H-thioxanthen-9-yl)-2-oxo-5-(piperazin-1-yl)-6-(trifluoromethyl)-1,2-dihydropyridine-3-carboxamide], 330 nM. Take `Cc1ccc2c(c1)Oc1cc(C)ccc1C2NC(=O)c1cc(NC2CCNCC2)c(C(F)(F)F)[nH]c1=O` [Compound 433, N-(3,6-dimethyl-9H-xanthen-9-yl)-2-oxo-5-(piperidin-4-ylamino)-6-(trifluoromethyl)-1,2-dihydropyridine-3-carboxamide]: the half-maximal inhibitory concentration (IC50) worked out at 730 nM. Under `Cc1ccc2c(c1)Oc1cc(C)ccc1C2NC(=O)c1cc(N2CCNCC2)c(C(F)(F)F)[nH]c1=O` [Compound 434, N-(3,6-dimethyl-9H-xanthen-9-yl)-2-oxo-5-(piperazin-1-yl)-6-(trifluoromethyl)-1,2-dihydropyridine-3-carboxamide] stands 110 nM; under `Cc1ccc2c(c1)Oc1cccc(C)c1C2NC(=O)c1cc(N2CCCCC2)c(C(F)(F)F)[nH]c1=O` (stereo not drawn) [Compound 437, N-(1,6-dimethyl-9H-xanthen-9-yl)-2-oxo-5-(piperidin-1-yl)-6-(trifluoromethyl)-1,2-dihydropyridine-3-carboxamide], 1290 nM; under `Cc1ccc2c(c1)Oc1cccc(C)c1C2NC(=O)c1cc(N2CCOCC2)c(C(F)(F)F)[nH]c1=O` (stereo not drawn) [Compound 439, N-(1,6-dimethyl-9H-xanthen-9-yl)-5-morpholino-2-oxo-6-(trifluoromethyl)-1,2-dihydropyridine-3-carboxamide], 560 nM. The result for `COCCOc1ccc2c(c1)Oc1ccccc1C2NC(=O)c1ccc(C(F)(F)F)[nH]c1=O` (stereo not drawn) [Compound 440, N-(3-(2-methoxyethoxy)-9H-xanthen-9-yl)-2-oxo-6-(trifluoromethyl)-1,2-dihydropyridine-3-carboxamide] reads 700 nM; that for `Cc1ccc(C(NC(=O)c2ccc(C(F)(F)F)[nH]c2=O)c2ccccc2)c(S(C)(=O)=O)c1` (stereo not drawn) [Compound 442, N-((4-methyl-2-(methylsulfonyl)phenyl)(phenyl)methyl)-2-oxo-6-(trifluoromethyl)-1,2-dihydropyridine-3-carboxamide], 2560 nM; that for `CCc1ccc(C(NC(=O)c2ccc(C(F)(F)F)[nH]c2=O)c2ccc(C)cc2)cc1` (stereo not drawn) [Compound 443, N-((4-ethylphenyl)(p-tolyl)methyl)-2-oxo-6-(trifluoromethyl)-1,2-dihydropyridine-3-carboxamide], 120 nM.

On to `CCc1cccc(C(NC(=O)c2ccc(C(F)(F)F)[nH]c2=O)c2ccc(C)cc2)c1` (stereo not drawn) [Compound 444, N-((3-ethylphenyl)(p-tolyl)methyl)-2-oxo-6-(trifluoromethyl)-1,2-dihydropyridine-3-carboxamide], for which the 50% inhibitory concentration (IC50) was found to be 170 nM. Under `COc1cccc(C(NC(=O)c2ccc(C(F)(F)F)[nH]c2=O)c2ccc(C)cc2)c1` (stereo not drawn) [Compound 446, N-((3-methoxyphenyl)(p-tolyl)methyl)-2-oxo-6-(trifluoromethyl)-1,2-dihydropyridine-3-carboxamide] stands 270 nM; under `COc1ccc(C(NC(=O)c2ccc(C(F)(F)F)[nH]c2=O)c2ccc(C)cc2)cc1` (stereo not drawn) [Compound 447, N-((4-methoxyphenyl)(p-tolyl)methyl)-2-oxo-6-(trifluoromethyl)-1,2-dihydropyridine-3-carboxamide], 160 nM.

As for `CSc1ccc(C(NC(=O)c2ccc(C(F)(F)F)[nH]c2=O)c2ccc(C)cc2)cc1` (stereo not drawn) [Compound 448, N-((4-(methylthio)phenyl)(p-tolyl)methyl)-2-oxo-6-(trifluoromethyl)-1,2-dihydropyridine-3-carboxamide], the 50% inhibitory concentration (IC50) worked out at 140 nM. The result for `COc1cc(C)ccc1C(NC(=O)c1ccc(C(F)(F)F)[nH]c1=O)c1ccccc1` (stereo not drawn) [Compound 449, N-((2-methoxy-4-methylphenyl)(phenyl)methyl)-2-oxo-6-(trifluoromethyl)-1,2-dihydropyridine-3-carboxamide] reads 970 nM. Under `Cc1ccc(C(NC(=O)c2ccc(C(F)(F)F)[nH]c2=O)c2ccccc2S(C)(=O)=O)cc1` (stereo not drawn) [Compound 450, N-((2-(methylsulfonyl)phenyl)(p-tolyl)methyl)-2-oxo-6-(trifluoromethyl)-1,2-dihydropyridine-3-carboxamide] stands 1100 nM; under `COc1c(C)cccc1C(NC(=O)c1ccc(C(F)(F)F)[nH]c1=O)c1ccccc1` (stereo not drawn) [Compound 451, N-((2-methoxy-3-methylphenyl)(phenyl)methyl)-2-oxo-6-(trifluoromethyl)-1,2-dihydropyridine-3-carboxamide], 1960 nM; under `Cc1cccc(C(NC(=O)c2ccc(C(F)(F)F)[nH]c2=O)c2ccccc2S(C)(=O)=O)c1` (stereo not drawn) [Compound 452, N-((2-(methylsulfonyl)phenyl)(m-tolyl)methyl)-2-oxo-6-(trifluoromethyl)-1,2-dihydropyridine-3-carboxamide], 7030 nM. Under `Cc1cccc(C(NC(=O)c2ccc(C(F)(F)F)[nH]c2=O)c2ccccc2)c1S(C)(=O)=O` (stereo not drawn) [Compound 453, N-((3-methyl-2-(methylsulfonyl)phenyl) (phenyl)methyl)-2-oxo-6-(trifluoromethyl)-1,2-dihydropyridine-3-carboxamide] stands 3230 nM. In the case of `CCc1cccc(C(NC(=O)c2ccc(C(F)(F)F)[nH]c2=O)c2ccccc2OC)c1` (stereo not drawn) [Compound 454, N-((3-ethylphenyl)(2-methoxyphenyl)methyl)-2-oxo-6-(trifluoromethyl)-1,2-dihydropyridine-3-carboxamide], the IC50 came out at 1810 nM.

With `CCc1cccc(C(NC(=O)c2ccc(C(F)(F)F)[nH]c2=O)c2ccccc2SC)c1` (stereo not drawn) [Compound 455, N-((3-ethylphenyl)(2-(methylthio)phenyl)methyl)-2-oxo-6-(trifluoromethyl)-1,2-dihydropyridine-3-carboxamide], the half-inhibitory concentration (IC50) is 870 nM. Regarding `CCc1cccc(C(NC(=O)c2ccc(C(F)(F)F)[nH]c2=O)c2ccccc2S(C)(=O)=O)c1` (stereo not drawn) [Compound 456, N-((3-ethylphenyl)(2-(methylsulfonyl)phenyl)methyl)-2-oxo-6-(trifluoromethyl)-1,2-dihydropyridine-3-carboxamide], the half-maximal inhibitory concentration (IC50) stood at 4830 nM.

On to `CCCc1ccc2c(c1)C(NC(=O)c1ccc(C(F)(F)F)[nH]c1=O)c1ccccc1O2` (stereo not drawn) [Compound 457, 2-oxo-N-(2-propyl-9H-xanthen-9-yl)-6-(trifluoromethyl)-1,2-dihydropyridine-3-carboxamide], for which the concentration for half-maximal inhibition (IC50) worked out at 120 nM. As for `CCCc1ccc2c(c1)C(NC(=O)c1ccc(C(F)(F)F)[nH]c1=O)c1ccccc1S2` (stereo not drawn) [Compound 458, 2-oxo-N-(2-propyl-9H-thioxanthen-9-yl)-6-(trifluoromethyl)-1,2-dihydropyridine-3-carboxamide], the IC50 came to 520 nM. The result for `Cc1ccc2c(c1)Oc1cc(C)ccc1C2NC(=O)c1ccc(-c2ccccc2)[nH]c1=O` [Compound 459, N-(3,6-dimethyl-9H-xanthen-9-yl)-2-oxo-6-phenyl-1,2-dihydropyridine-3-carboxamide] reads greater than 10000 nM; that for `Cc1ccc2c(c1)S(=O)(=O)c1cc(C)ccc1C2NC(=O)c1cc(CO)c(C(F)(F)F)[nH]c1=O` [Compound 462, N-(3,6-dimethyl-10,10-dioxido-9H-thioxanthen-9-yl)-5-(hydroxymethyl)-2-oxo-6-(trifluoromethyl)-1,2-dihydropyridine-3-carboxamide], 140 nM; that for `Cc1ccc2c(c1)Sc1cc(C)ccc1C2NC(=O)c1cc(CO)c(C(F)(F)F)[nH]c1=O` [Compound 463, N-(3,6-dimethyl-9H-thioxanthen-9-yl)-5-(hydroxymethyl)-2-oxo-6-(trifluoromethyl)-1,2-dihydropyridine-3-carboxamide], 50 nM. Regarding `Cc1ccc2c(c1)Oc1cc(C)ccc1C2NC(=O)c1cc(CO)c(C(F)(F)F)[nH]c1=O` [Compound 464, N-(3,6-dimethyl-9H-xanthen-9-yl)-5-(hydroxymethyl)-2-oxo-6-(trifluoromethyl)-1,2-dihydropyridine-3-carboxamide], the IC50 stood at 10 nM. For `CCCc1cccc(C(NC(=O)c2ccc(C(F)(F)F)[nH]c2=O)c2ccccc2)c1` (stereo not drawn) [Compound 465, 2-oxo-N-(phenyl(3-propylphenyl)methyl)-6-(trifluoromethyl)-1,2-dihydropyridine-3-carboxamide], the IC50 was found to be 610 nM.

For `CCc1cccc(C(NC(=O)c2ccc(C(F)(F)F)[nH]c2=O)c2ccccc2)c1` (stereo not drawn) [Compound 466, N-((3-ethylphenyl)(phenyl)methyl)-2-oxo-6-(trifluoromethyl)-1,2-dihydropyridine-3-carboxamide], the half-maximal inhibitory concentration (IC50) is 600 nM.

Regarding `C=Cc1cccc(C(NC(=O)c2ccc(C(F)(F)F)[nH]c2=O)c2ccccc2)c1` (stereo not drawn) [Compound 467, 2-oxo-N-(phenyl(3-vinylphenyl)methyl)-6-(trifluoromethyl)-1,2-dihydropyridine-3-carboxamide], the half-maximal inhibitory concentration (IC50) is 990 nM. Under `CCc1ccc2c(c1)C(NC(=O)c1ccc(C(F)(F)F)[nH]c1=O)c1ccccc1S2(=O)=O` (stereo not drawn) [Compound 468, N-(2-ethyl-10,10-dioxido-9H-thioxanthen-9-yl)-2-oxo-6-(trifluoromethyl)-1,2-dihydropyridine-3-carboxamide] stands 190 nM.
